In paper PMC5011342, “A high throughput drug screening assay to identify compounds that promote oligodendrocyte differentiation using acutely dissociated and purified oligodendrocyte precursor cells” (BMC Research Notes, 2016):
Several values for one entry are separate records, joined by “and”; a condition that tells them apart may be missing. Identical values can stand only once. Like-named read-outs stand apart in the source and are kept apart here.

Assays:
[1] = test system: acutely dissociated and purified rat OPCs; test: Acute OL differentiation assay (MBP expression/cell, immunofluorescent image quantification); format: cell-based; conditions: for activation at 2 µM / activation at 10 µM / activation at 0.4 µM / activation at 0.08 µM: Rattus norvegicus
Method in brief: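 Oligodendrocyte precursor cells were enriched from P6-P7 Sprague–Dawley rat brains by immunopanning (RAN-2 and GalC depletion, O4 selection), plated at 5000 cells/well in serum-free, mitogen-free differentiation media on PDL/laminin 96-well view plates, centrifuged at 200×g, and pre-incubated 1–2 h before test compounds were added in quadruplicate. On DIV4, cells were fixed, stained for MBP and DAPI, imaged automatically, and MBP expression per cell was quantified.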

[2] = test system: expanded OPCs; test: cells; conditions: for viability at 0.1 µM / viability at 1 µM / viability at 10 µM: Rattus norvegicus, 72 h; for viability at 0.1 µM: read-out: 0.1 µM (% DMSO), alamarBlue viability, NCC library compound at 0.1 µM, sheet "All Tox data"
Method in brief: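 Expanded OPCs seeded at 10,000 cells/well in differentiation media, then exposed to NCC library compounds at 10, 1 and 0.1 µM (quadruplicate, 0.1% DMSO) for three days. Viability read as alamarBlue fluorescence (560/590 nm) after 4 h at 37 °C; tunicamycin 5 ng/ml served as toxicity control.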

[3] = test compound at 2 uM, MBP expression relative to quetiapine, NCC library screen, sheet "All OLga data", read-out: 2 uM (% Quet)
[4] = test compound at 10 uM, MBP expression relative to quetiapine, NCC library screen, sheet "All OLga data", read-out: 10 uM (% Quet)
[5] = alamarBlue viability of expanded OPCs, compound at 0.1 µM, relative to DMSO control
[6] = alamarBlue viability of expanded OPCs, compound at 1 µM, relative to DMSO control
[7] = alamarBlue viability of expanded OPCs, compound at 10 µM, relative to DMSO control
[8] = 2 uM test compound, relative to quetiapine, sheet "All OLga data", read-out: OL differentiation, 2 uM (% Quet)
[9] = 10 uM test compound, relative to quetiapine, sheet "All OLga data", read-out: OL differentiation, 10 uM (% Quet)
[10] = read-out: 1 µM (% DMSO), alamarBlue viability, NCC library compound at 1 µM, sheet "All Tox data"
[11] = read-out: 10 µM (% DMSO), alamarBlue viability, NCC library compound at 10 µM, sheet "All Tox data"
[12] = test compound at 0.4 uM, NCC library screen, sheet "All OLga data", relative to quetiapine, read-out: 0.4 uM (% Quet)
[13] = test compound at 2 uM, NCC library screen, sheet "All OLga data", relative to quetiapine, read-out: 2 uM (% Quet)
[14] = test compound at 10 uM, NCC library screen, sheet "All OLga data", relative to quetiapine, read-out: 10 uM (% Quet)
[15] = 2 uM test compound, relative to quetiapine, sheet "All OLga data"

Structure (SMILES): C[C@H]1c2cccc(O)c2C(=O)C2=C(O)[C@]3(O)C(=O)C(C(N)=O)=C(O)[C@@H](N(C)C)[C@@H]3[C@@H](O)[C@@H]21 [Doxycycline]
- activation at 2 µM [1, 3]: 4.2%
- activation at 10 µM [1, 4]: -18.6%
- 0.1 µM (% DMSO) [2, 5]: 95.2 % DMSO
- 1 µM (% DMSO) [2, 6]: 91.4 % DMSO
- 10 µM (% DMSO) [2, 7]: 82.8 % DMSO

Structure (SMILES): CN(C)CCOC(C)(c1ccccc1)c1ccccn1 (stereo not drawn) [Doxylamine]
- activation at 2 µM [1, 8]: -9.7%
- activation at 10 µM [1, 9]: 0.7%
- viability at 0.1 µM [2]: 96%
- viability at 1 µM [2, 10]: 86.6%
- viability at 10 µM [2, 11]: 75%

Structure (SMILES): O=C(CCCN1CC=C(n2c(=O)[nH]c3ccccc32)CC1)c1ccc(F)cc1 [Droperidol]
- activation at 2 µM [1, 8]: 7.3%
- activation at 10 µM [1, 9]: -13.2%
- viability at 0.1 µM [2]: 90.8%
- viability at 1 µM [2, 10]: 97.2%
- viability at 10 µM [2, 11]: 71.6%

Structure (SMILES): CS(=O)(=O)c1ccc(-c2cc(Br)sc2-c2ccc(F)cc2)cc1 [DuP 697]
- activation at 0.4 µM [1, 12]: -42.3%
- activation at 2 µM [1, 13]: -109%
- viability at 0.1 µM [2]: 89.6%
- viability at 1 µM [2, 10]: 114%
- viability at 10 µM [2, 11]: 10.7%

Structure (SMILES): CNCC[C@H](Oc1cccc2ccccc12)c1cccs1 [Duloxetine]
- activation at 0.08 µM ([1]; read-out: 0.08 uM (% Quet)): -5.1%
- activation at 0.4 µM ([1]; read-out: 0.4 uM (% Quet)): -12.9%
- activation at 0.08 µM ([1]; read-out: OL differentiation, 0.08 uM (% Quet)): 18.3%
- activation at 0.4 µM ([1]; read-out: OL differentiation, 0.4 uM (% Quet)): -7.6%
- 0.1 µM (% DMSO) [2]: 56.7 % DMSO and 82.6 % DMSO
- 1 µM (% DMSO) [2]: 45.5 % DMSO
- 10 µM (% DMSO) [2]: 12.6 % DMSO
- viability at 1 µM ([2]; read-out: 1 µM (% DMSO)): 30.3%
- viability at 10 µM ([2]; read-out: 10 µM (% DMSO)): 9.7%

Structure (SMILES): O=c1c2ccccc2[se]n1-c1ccccc1 [Ebselen]
- activation at 0.08 µM ([1]; test compound at 0.08 uM, NCC library screen, sheet "All OLga data", relative to quetiapine, read-out: 0.08 uM (% Quet)): 131%
- activation at 0.4 µM [1, 12]: -95.7%
- viability at 0.1 µM [2]: 61.7%
- viability at 1 µM [2, 10]: 30.7%
- viability at 10 µM [2, 11]: 10.1%

Structure (SMILES): Clc1ccc(COC(Cn2ccnc2)c2ccc(Cl)cc2Cl)cc1 (stereo not drawn) [Econazole]
- activation at 0.4 µM [1, 12]: 90%
- activation at 2 µM [1, 13]: -178%
- 0.1 µM (% DMSO) [2, 5]: 178.0 % DMSO
- 1 µM (% DMSO) [2, 6]: 195.6 % DMSO
- 10 µM (% DMSO) [2, 7]: 29.6 % DMSO

Structure (SMILES): CC[N+](C)(C)c1cccc(O)c1 [Edrophonium]
- activation at 2 µM [1, 13]: 10.5%
- activation at 10 µM [1, 14]: 10.8%
- viability at 0.1 µM [2]: 93%
- viability at 1 µM [2, 10]: 91%
- viability at 10 µM [2, 11]: 100%

Structure (SMILES): O=C1Nc2ccc(Cl)cc2[C@@](C#CC2CC2)(C(F)(F)F)O1 [Efavirenz]
- activation at 0.4 µM ([1]; 0.4 uM test compound, relative to quetiapine, sheet "All OLga data", read-out: OL differentiation, 0.4 uM (% Quet)): 3.8%
- activation at 2 µM [1, 8]: 40.9%
- viability at 0.1 µM [2]: 90.4%
- viability at 1 µM [2, 10]: 85.6%
- viability at 10 µM [2, 11]: 16.8%

Structure (SMILES): CCOC(=O)[C@H](CCc1ccccc1)N[C@@H](C)C(=O)N1CCC[C@H]1C(=O)O [Enalapril]
- activation at 2 µM [1, 3]: 8.8%
- activation at 10 µM [1, 4]: -8.9%
- 0.1 µM (% DMSO) [2, 5]: 90.6 % DMSO
- 1 µM (% DMSO) [2, 6]: 90.6 % DMSO
- 10 µM (% DMSO) [2, 7]: 87.6 % DMSO

Structure (SMILES): C[C@H](N[C@@H](CCc1ccccc1)C(=O)O)C(=O)N1CCC[C@H]1C(=O)O [Enalaprilat]
- OL differentiation, 2 uM (% Quet) [1, 15]: -17.8 % Quet
- OL differentiation, 10 uM (% Quet) ([1]; 10 uM test compound, relative to quetiapine, sheet "All OLga data"): -49.3 % Quet
- 0.1 µM (% DMSO) ([2]; alamarBlue viability, NCC library compound at 0.1 µM, sheet "All Tox data"): 92.9 % DMSO
- 1 µM (% DMSO) ([2]; alamarBlue viability, NCC library compound at 1 µM, sheet "All Tox data"): 91.2 % DMSO
- 10 µM (% DMSO) ([2]; alamarBlue viability, NCC library compound at 10 µM, sheet "All Tox data"): 83.0 % DMSO

Structure (SMILES): CCN1CCN(c2cc3c(cc2F)c(=O)c(C(=O)O)cn3C2CC2)CC1 [Enrofloxacin]
- activation at 2 µM [1, 13]: -3.6%
- activation at 10 µM [1, 14]: 13.5%
- viability at 0.1 µM [2]: 88.5%
- viability at 1 µM [2, 10]: 89%
- viability at 10 µM [2, 11]: 79.9%

Structure (SMILES): O=C(O[C@@H]1Cc2c(O)cc(O)cc2O[C@@H]1c1cc(O)c(O)c(O)c1)c1cc(O)c(O)c(O)c1 [Epigallocatechin gallate]
- OL differentiation, 0.4 uM (% Quet) ([1]; 0.4 uM test compound, relative to quetiapine, sheet "All OLga data"): -15.9 % Quet
- OL differentiation, 2 uM (% Quet) [1, 15]: 21.7 % Quet
- 0.1 µM (% DMSO) ([2]; alamarBlue viability of expanded OPCs, compound at 0.1 µM, sheet All Tox data): 81.9 % DMSO
- 1 µM (% DMSO) ([2]; alamarBlue viability of expanded OPCs, compound at 1 µM, sheet All Tox data): 78.8 % DMSO
- 10 µM (% DMSO) ([2]; alamarBlue viability of expanded OPCs, compound at 10 µM, sheet All Tox data): 48.5 % DMSO
